Entries after “also recorded” stand apart in the source; their conditions may differ.
What was measured:
ribonucleotide reductase = target: T1, ribonucleotide reductase (Homo sapiens, UniProt P23921); test: CDP reductase assay on HCT8 cell extracts incubated with FdUMP; type: biochemical
T1 construct: 50 mM HEPES (pH 7.2), and 100 μl extract (0.2-0.7 mg protein); endogenous in cells
T1 sequence (P23921 1-792): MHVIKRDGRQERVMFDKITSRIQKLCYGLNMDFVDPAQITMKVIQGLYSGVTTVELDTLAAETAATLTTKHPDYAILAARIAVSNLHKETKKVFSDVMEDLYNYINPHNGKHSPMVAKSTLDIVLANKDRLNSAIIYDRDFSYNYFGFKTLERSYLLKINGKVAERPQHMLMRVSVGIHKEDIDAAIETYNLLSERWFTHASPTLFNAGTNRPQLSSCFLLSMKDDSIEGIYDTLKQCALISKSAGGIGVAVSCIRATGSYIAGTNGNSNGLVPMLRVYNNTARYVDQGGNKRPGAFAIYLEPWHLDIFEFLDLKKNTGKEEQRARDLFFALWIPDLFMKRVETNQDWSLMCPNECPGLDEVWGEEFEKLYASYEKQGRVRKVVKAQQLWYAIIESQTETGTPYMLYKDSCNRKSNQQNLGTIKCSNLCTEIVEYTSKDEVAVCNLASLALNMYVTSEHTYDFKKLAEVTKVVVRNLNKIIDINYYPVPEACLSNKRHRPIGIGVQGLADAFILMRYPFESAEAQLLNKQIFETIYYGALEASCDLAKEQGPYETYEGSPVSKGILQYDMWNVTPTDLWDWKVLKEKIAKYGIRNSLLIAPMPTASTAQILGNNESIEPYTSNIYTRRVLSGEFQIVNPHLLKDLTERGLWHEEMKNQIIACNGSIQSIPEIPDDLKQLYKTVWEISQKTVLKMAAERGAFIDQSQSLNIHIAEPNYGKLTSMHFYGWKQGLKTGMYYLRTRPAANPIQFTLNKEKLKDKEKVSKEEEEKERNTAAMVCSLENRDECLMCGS
Protocol: Cells grown in 250 cm^2-flasks were trypsinized and washed twice in ice-cold PBS. Cells were centrifuged at 300×g for 5 min at 4° C. and resuspended in 3 volumes of Low Salt Extraction Buffer (10 mM HEPES, pH 7.2, 2 mM DTT). Viable cell count of the resuspension was determined by trypan blue exclusion. After 30 min incubation on ice, the cell suspension was drawn 10× through a 28G½ needle. The crude homogenate was centrifuged at 100,000×g for 60 min at 4° C. to remove cellular debris. The supernatant fraction was dialyzed against 1,000 volumes of the Low Salt Extraction Buffer for 4 hours with one buffer change after 2 hours using dialysis cassettes with a molecular weight cut-off of 10,000 (Slide-A-Lyzer Dialysis Cassettes, Pierce, Rockford, Ill.). The dialyzed extract was snap-frozen in liquid nitrogen and stored at −80° C. until analysis. All extraction procedures were performed at 4° C.
Activity of ribonucleotide reductase was determined by a modified method of Steeper and Stuart (Steeper et al., Anal. Biochem. 34:123-130, 1970). Conversion of CDP to dCDP was monitored using [^14C]CDP (53 mCi/mmol, Movarek Biochemicals, Inc.) as substrate and rattlesnake venom from Crotalus adamanteus (Sigma) to hydrolyze nucleotides to nucleosides. The reaction mixture contained the following concentrations of ingredients in a final volume of 150 μl: 40 μM CDP, 10 μM [^14C]CDP (0.08 μCi), 6 mM DTT, 4 mM magnesium acetate, 2 mM ATP, 50 mM HEPES (pH 7.2), and 100 μl extract (0.2-0.7 mg protein). The enzyme reaction was carried out for 30 min at 37° C. and stopped by incubation at 100° C. for 4 min. Nucleotides were hydrolyzed by adding 50 μl carrier dCMP (6 mM dCMP, 2 mM MgCl2, 6 mM Tris-HCl, pH 8.8) and 25 μl snake venom suspension (50 mg/ml). After 3 hours incubation at 37° C., the reaction mixture was heat-inactivated by boiling for 4 min. Heat-precipitated material was removed by centrifugation at 14,000×g for 10 min at room temperature. [^14C]deoxycytosine was separated from [^14C]cytosine by covalent chromatography using phenylboronic acid-columns (BondElut PBA, Varian, Harbor City, Calif.). Triethenolamine Buffer (pH 10) was added to the supernatant fraction to a final concentration of 0.4 M and 1 ml of this mixture was applied to the column. Fractions were collected and measured for radioactivity by liquid scintillation spectrometry (LS 60001C Liquid Scintillation System, Beckman Instruments, Inc., Fullerton, Calif.). One unit of enzyme activity was defined as conversion of 1 nmol CDP to the product dCDP in 1 hour at 37° C.

GADD34 mRNA (OCUM cells) = test: Northern hybridization for GADD34 in cells treated with MMC; type: cell-based, human; conditions: for Increase in GADD34 band intensity vs negative control: high dose MMC 0.04 μg/cc; for GADD34 band: low dose MMC 0.005 μg/cc
Protocol: Cells were cultured with 12 cc culture media containing 0 μg/ml (untreated), 0.005 μg/ml (low dose), or 0.04 μg/ml (high dose) of Mitomycin-C (Bristol Laboratories, Princeton, N.J.). Cells were harvested by trypsinization at 24 and 48 hours. Total RNA was prepared using a total RNA isolation system (Promega, Madison, Wis.) and RNA content was measured by optical density at 260 nm. 7 μg of RNA per sample was loaded in a denaturing 1.2% agarose gel. Electrophoretic separation, RNA transfer to a nitrocellulose membrane (Intergen, Purchase, N.Y.), hybridization (50% formamide at 40° C.), and autoradiographic identification were done by standard techniques. The cDNA clone GADD34 containing a 2.4 kb insert was provided by Dr. A. Fomace, Jr, and the cDNA clone a-actin containing a 1.1 kb insert was acquired from ATCC (Manassas, Va.)(Hollander et al., J. Biol. Chem. 272:13731-13737, 1997). cDNA that had been excised from plasmid vectors was labelled with [^32P]dCTP by the random-primer labelling method (Stratagene, La Jolla, Calif.).

[1] = test system: OCUM-2MD3 peritoneal tumor; test: Murine xenograft model of gastric carcinomatosis, intraperitoneal treatment; type: in vivo, athymic nude mice; conditions: 0.1 mg/kg MMC i.p., 4 weeks
Source text: An established murine xenograft model of gastric carcinomatosis was used as previously described (Bennett et al., Journal of Molecular Medicine 78:166-174, 2000; Yashiro et al., Clin. Exp. Metastasis 14:43-54, 1996). Intraperitoneal (i.p.) injection of 2×10^6 OCUM-2MD3 cells reliably develops disseminated peritoneal tumor that seeds the omentum, small and large bowel mesentery, diaphragm, gonadal fat and hepatic hilum. Macroscopic nodules are present within three days after injection, and the development of overwhelming tumor burden, bloody ascites and cachexia occurs by four weeks post-injection. To assess tumor burden, animals were eviscerated at sacrifice and peritoneal tumor was stripped from associated abdominal organs as previously described. Tumor burden was then assessed by weight.
Animals were all injected i.p. with 2×10^6 OCUM-2MD3 cells and treated 3d later. […] Animals were sacrificed 4 weeks later and tumor burden was assessed as described (Bennett et al., Journal of Molecular Medicine 78:166-174, 2000).

OCUM-2MD3 cells = test: MTT cytotoxicity with Chou-Talalay combination analysis; type: cell-based, human
Protocol: (§1) Cytotoxicity assays were performed by plating 1×10^4 cells/well into 96 well assay plates (Costar, Corning Inc., Corning, N.Y.). […] These ratios were determined by estimating the ED50 for each drug in initial experiments and by using these doses to determine the ratio of combination therapy. Percent cell survival for each group (vs. controls) was calculated 5d after treatment using a standard MTT (3-(4,5-dimethylthiazol-2-yl)-2,5-diphenyl-2H tetrazolium bromide) bioassay. A micro-plate reader was used to evaluate for the presence of the MTT-formazan product at 550 nm. Background optical density (OD) was subtracted from the OD readings of all samples. Cell viability was then calculated by dividing the mean absorbance (OD)(n=6) of the treated wells by the mean absorbance (OD)(n=6) of the untreated (control) wells.
(§2) This method defines the expected additive effect of two agents and then quantifies synergism or antagonism by determining how much the combination effect differs from the expected additive effect. The equations and computer software used for data analysis have been described in detail elsewhere (Chou, T., editors. Academic Press, New York. 61-102, 1991; Chou et al., Advances in Enzyme Regulation 22:27-55, 1984; Chou et al., Manual and Software for IBM-PC 1987; Chou, J., Academic Press, New York 223-244, 1991). The combination index equation is used to precisely analyze two-drug combinations. Interpretation of CI values are defined such that a CI=1 indicates an additive effect, while a CI<1 and a CI>1 indicate synergism and antagonism, respectively. Cytotoxicity data obtained from the experiments described above were used in the Chou-Talalay analysis. […] Based on the actual experimental data, computer software was used to calculate serial CI values over an entire range of effect levels (Fa) from 5-95%. […] Data were also analyzed by the isobologram technique, which is dose-oriented. The axes on an isobologram represent the doses of each drug. For any given Fa value, two points on the x and y axes are chosen that correspond to the doses of each drug necessary to generate that given Fa value. The straight line drawn between these two points corresponds to the possible combination doses that would be required to generate the same Fa value, assuming that the interaction between the two drugs is strictly additive. The observed experimental concentrations actually required to achieve a given Fa value are then added to the plot. If these points lie on the straight line then the effect is additive at that Fa value. If the point lies to the left of the straight line then the effect is synergistic, and if the point lies to the right of the straight line then the effect is antagonistic at that Fa value. Another calculation available using the combination index method is the dose-reduction index (DRI). The DRI is a determination of the fold-dose reduction allowed for each drug when given in synergistic combination, as compared to the concentration of single agent therapy needed to achieve the same effect level. A DRI>1 signifies a favorable reduction in toxicity while still maintaining therapeutic efficacy.

MKN-45-P cells = test: as above; type: cell-based, human
Protocol: as §1, §2

`O=c1[nH]c(=O)n([C@H]2C[C@H](O)[C@@H](COP(=O)(O)O)O2)cc1F` [FdUMP, 2′-deoxy-5-fluorouridine 5′ monophosphate] gave an Activity (ribonucleotide reductase; 0.001 mM FdUMP) of 77.0%, an RR activity (ribonucleotide reductase; 0.001 mM FdUMP) of 0.47 ± 0.02 nmol dCDP / h and an inhibition at 1 µM (ribonucleotide reductase; 0.001 mM FdUMP) of 23%. The Activity (ribonucleotide reductase; 0.01 mM FdUMP) was 73.8%, the RR activity (ribonucleotide reductase; 0.01 mM FdUMP) was 0.45 ± 0.02 nmol dCDP / h and the inhibition at 10 µM (ribonucleotide reductase; 0.01 mM FdUMP) was 26.2%. For the same compound, the Activity (ribonucleotide reductase; 0.1 mM FdUMP) was 70.5%, the RR activity (ribonucleotide reductase; 0.1 mM FdUMP) was 0.43 ± 0.03 nmol dCDP / h and the inhibition at 100 µM (ribonucleotide reductase; 0.1 mM FdUMP) was 29.5%. The Activity (ribonucleotide reductase; 1 mM FdUMP) was 39.3%, the RR activity (ribonucleotide reductase; 1 mM FdUMP) was 0.24 ± 0.02 nmol dCDP / h and the “RR inhibition in words” value (ribonucleotide reductase; 1 mM FdUMP) was “Substantial enzyme inhibition”. The inhibition at 1000 µM (ribonucleotide reductase; 1 mM FdUMP) was 60.7%, the RR activity remaining (ribonucleotide reductase; 0.001 to 0.1 mM FdUMP) was 80 to 70% and the Activity (ribonucleotide reductase; 10 mM FdUMP) was 22.9%. For the same compound, the RR activity (ribonucleotide reductase; 10 mM FdUMP) was 0.14 ± 0.01 nmol dCDP / h and the inhibition at 10000 µM (ribonucleotide reductase; 10 mM FdUMP) was 77.1%.

With `CO[C@@]12[C@H](COC(N)=O)C3=C(C(=O)C(C)=C(N)C3=O)N1C[C@@H]1N[C@@H]12` [MMC, Mitomycin C] the “Increase in GADD34 band intensity vs negative control” value (GADD34 mRNA (OCUM cells); 24 hours) was 2.49 fold, the “Increase in GADD34 band intensity vs negative control” value (GADD34 mRNA (OCUM cells); 48 hours) was 3.21 fold and the GADD34 band (GADD34 mRNA (OCUM cells); 24 hours) was “did not result in upregulation”. For the same compound, the GADD34 band (GADD34 mRNA (OCUM cells); 24 hours, listed as Mitomycin C) was “did not show any band”, the GADD34 band (GADD34 mRNA (OCUM cells); 48 hours) was “did not show any GADD34,band; also recorded: failed to demonstrate the presence of GADD34 mRNA” and the “Mean peritoneal tumor burden (±SEM)” value [1] was 1490 (±310) mg. The “MMC alone, dose needed to kill fraction affected” value (OCUM-2MD3 cells; Fa 10%) was 0.009 ug/cc, the “MMC alone, dose needed to kill fraction affected” value (OCUM-2MD3 cells; Fa 20%) was 0.014 ug/cc and the “MMC alone, dose needed to kill fraction affected” value (OCUM-2MD3 cells; Fa 30%) was 0.017 ug/cc. The “MMC alone, dose needed to kill fraction affected” value (OCUM-2MD3 cells; Fa 40%) was 0.021 ug/cc, the “MMC alone, dose needed to kill fraction affected” value (OCUM-2MD3 cells; Fa 50%) was 0.026 ug/cc and the “MMC alone, dose needed to kill fraction affected” value (OCUM-2MD3 cells; Fa 60%) was 0.031 ug/cc. The “MMC alone, dose needed to kill fraction affected” value (OCUM-2MD3 cells; Fa 70%) was 0.038 ug/cc, the “MMC alone, dose needed to kill fraction affected” value (OCUM-2MD3 cells; Fa 80%) was 0.048 ug/cc and the “MMC alone, dose needed to kill fraction affected” value (OCUM-2MD3 cells; Fa 90%) was 0.070 ug/cc. The “MMC alone, dose needed to kill fraction affected” value (OCUM-2MD3 cells; Fa 95%) was 0.100 ug/cc, the “MMC alone, dose needed to kill fraction affected” value (MKN-45-P cells; Fa 10%) was 0.014 ug/cc and the “MMC alone, dose needed to kill fraction affected” value (MKN-45-P cells; Fa 20%) was 0.027 ug/cc. For the same compound, the “MMC alone, dose needed to kill fraction affected” value (MKN-45-P cells; Fa 30%) was 0.040 ug/cc, the “MMC alone, dose needed to kill fraction affected” value (MKN-45-P cells; Fa 40%) was 0.056 ug/cc and the “MMC alone, dose needed to kill fraction affected” value (MKN-45-P cells; Fa 50%) was 0.077 ug/cc. For the same compound, the “MMC alone, dose needed to kill fraction affected” value (MKN-45-P cells; Fa 60%) was 0.105 ug/cc, the “MMC alone, dose needed to kill fraction affected” value (MKN-45-P cells; Fa 70%) was 0.147 ug/cc and the “MMC alone, dose needed to kill fraction affected” value (MKN-45-P cells; Fa 80%) was 0.222 ug/cc. For the same compound, the “MMC alone, dose needed to kill fraction affected” value (MKN-45-P cells; Fa 90%) was 0.413 ug/cc, the “MMC alone, dose needed to kill fraction affected” value (MKN-45-P cells; Fa 95%) was 0.732 ug/cc and the “Dose lowering when given as combination therapy” value (MKN-45-P cells; combination of MMC and G207) was 2-9 fold.

Source: US20030228281A1, “Use of mutant herpes viruses and anticancer agents in the treatment of cancer” (priority 2000, published 2003)
